From PMC6232849 (European journal of medicinal chemistry, 2018)
Like-named read-outs stand apart in the source and are kept apart here.

What was measured:
β-hematin formation = assay type: biochemical; conditions: for IC50: read-out: β-hematin inhibition IC50, NP-40 detergent mediated assay
[1] = test system: NF54 strain of P. falciparum; assay: parasite growth inhibition, chloroquine-sensitive NF54 strain cultured in vitro; assay type: cell-based, Plasmodium falciparum
[2] = test system: Dd2 strain of P. falciparum; assay: parasite growth inhibition, chloroquine-resistant Dd2 strain; assay type: cell-based, Plasmodium falciparum
[3] = test system: Chinese hamster ovarian, CHO, cells; assay: cytotoxicity against mammalian cells; assay type: cell-based
[4] = test system: hemozoin formation in NF54 strain of P. falciparum; assay: cellular heme fractionation assay; assay type: cell-based, Plasmodium falciparum; conditions: NF54, 32 h incubation, drug added to early ring stage parasites
[5] = read-out: NF54 malaria parasite growth inhibition IC50, chloroquine-sensitive NF54 strain, LDH method of Makler et al

Question: Which results are given for “N-(4-(1H-Benzo[d]imidazole-2-yl)phenyl)-3-(trifluoromethyl)nicotinamide [Compound 9]”?
Answer: IC50 (β-hematin formation): 16600 ± 300 nM; parasite growth inhibition activity (in words) [1]: sub-micromolar; IC50 ([1]; read-out: IC50 NF54, chloroquine-sensitive NF54 strain (Table 2)): 800 ± 500 nM; IC50 [1, 5]: 800 ± 500 nM; RI (Resistance index = IC50 (Dd2)/IC50 (NF54)) ([2]; Dd2 versus NF54): 1.4; IC50 ([2]; read-out: IC50 Dd2, chloroquine-resistant Dd2 strain): 1100 ± 370 nM; SI (Dd2) (Selectivity index = IC50 (CHO)/IC50 (Dd2)) ([3]; CHO versus Dd2): 32; SI (NF54) (Selectivity index = IC50 (CHO)/IC50 (NF54)) ([3]; CHO versus NF54): 44; IC50 ([3]; read-out: IC50 CHO, cytotoxicity in CHO cells): 35000 ± 4000 nM

Question: With `CCN(CC)CCCC(C)Nc1ccnc2cc(Cl)ccc12` (stereo not drawn) [Chloroquine, reference compound] as the compound, how does the IC50 ([1]; Plasmodium falciparum, NF54, read-out: IC50 NF54) read?
Answer: 16 ± 6 nM

Question: What about the IC50 ([1]; Plasmodium falciparum, NF54, read-out: NF54 malaria parasite growth inhibition IC50) of the same compound?
Answer: 16 ± 6 nM

Question: What about the IC50 ([2]; Plasmodium falciparum, DD2, read-out: IC50 Dd2) of the same compound?
Answer: 150 ± 30 nM

Question: How did the IC50 (β-hematin formation) turn out when `O=C(Nc1ccc(-c2nc3ccccc3n2C(=O)c2ccccc2)cc1)c1cccc(Br)c1` [Compound 26, N-(4-(1H-Benzoyl-benzo[d]imidazole-2-yl)phenyl)-3-bromobenzamide] was run?
Answer: 15600 ± 500 nM

Question: And the IC50 [1, 5]?
Answer: 2600 ± 600 nM

Question: For `O=C(Nc1ccc(-c2nc3ccccc3[nH]2)cc1)c1cc(Cl)nc(Cl)c1` [Compound 12, N-(4-(1H-Benzo[d]imidazole-2-yl)phenyl)-2,6-dichloroisonicotinamide], which “parasite growth inhibition activity (in words)” value [1] is on record?
Answer: sub-micromolar

Question: How did the “β-hematin inhibition activity (in words)” value (β-hematin formation) turn out when `O=C(Nc1ccc(-c2nc3ccccc3[nH]2)cc1)c1ccccc1` [Compound 2] was run?
Answer: virtually inactive

Question: What about the “parasite growth inhibition activity (in words)” value [1] of the same compound?
Answer: virtually inactive

Question: For `O=C(Nc1ccc(-c2nc3ccccc3[nH]2)cc1)c1cncc(Br)c1` [Compound 5, N-(4-(1H-Benzo[d]imidazole-2-yl)phenyl)-5-bromonicotinamide], which “parasite growth inhibition activity (in words)” value [1] is on record?
Answer: sub-micromolar

Question: And the “change in freely exchangeable heme in the parasite cell” value [4]?
Answer: corresponding increase

Question: And the “change in hemozoin in the parasite cell” value [4]?
Answer: large decrease

Question: And the “change in undigested hemoglobin in the parasite cell” value [4]?
Answer: much smaller (non-significant) increase
